Laboratory results: patent publication US20050131028A1, “Methods and compositions for the extended duration treatment of pain, inflammation and inflammation-related disorders” (Pharmacia Corporation, priority 2003, published 2005)
“And” between values parts separate entries of the source, which are not always exact repeats. Equal values may be shown once. Read-outs that look alike come from different tables or passages of the source.

Columns and labels:
[1] = Rat pharmacokinetics, single oral dose, non-cassette; assay type: in vivo; details: for half-life: rat
Experimental: All rat pharmacokinetics data is non-cassette dosed. Non-cassette dosed pharmacokinetics means that each compound was dosed individually (i.e. not part of a cassette of compounds). Cassette-dosing is a technique in which 2 or more compounds are simultaneously administered to an animal and the pharmacokinetics of each compound is monitored individually even though it is in the same animal/blood sample.
At each sample collection time, blood samples were collected from three rats by cardiac puncture and then processed into plasma. […] Plasma drug concentrations were then determined by liquid chromatography-mass spectrometry methods. The mean plasma concentrations from each of the three samples collected at each time point were then plotted as a function of time. This process was repeated for each compound tested.

[2] = Canine cassette-dosed pharmacokinetics; assay type: in vivo, canines (beagles); details: for half-life: beagle, dog, plasma, 2 mg/kg; for increase in plasma half-life in canines: versus 4-methylphenyl compound
Experimental: Cassette-dosing is a technique in which 2 or more compounds are simultaneously administered to an animal and the pharmacokinetics of each compound is monitored individually even though it is in the same animal/blood sample.
Cassette-dosing refers to the practice of dosing 2 or more compounds simultaneously to animals. […] Blood samples were collected over time intervals ranging from 0 to 50 days into EDTA tubes and plasma harvested. Plasma drug concentrations were then determined for each compound in the cassette by liquid chromatography-mass spectrometry methods. This process was repeated for each group of compounds (cassette) tested.

[3] = Canine pharmacokinetics, compounds dosed individually; assay type: in vivo, canines (beagles); details: beagle, dog, plasma, oral 2 or 4 mg/kg, read-out: Canine t1/2 (converted)
Experimental: In this example, each compound was administered individually to canines (not cassette dosed). […] Plasma drug concentrations were then determined by liquid chromatography-mass spectrometry methods. This process was repeated for each compound tested.

hCOX-1 = hCOX-1 (Homo sapiens, UniProt P23219); test: hCOX-1 enzyme inhibition (IC50); assay type: biochemical; details: repeated experimental results listed separately
Chain of hCOX-1 (P23219 24-599): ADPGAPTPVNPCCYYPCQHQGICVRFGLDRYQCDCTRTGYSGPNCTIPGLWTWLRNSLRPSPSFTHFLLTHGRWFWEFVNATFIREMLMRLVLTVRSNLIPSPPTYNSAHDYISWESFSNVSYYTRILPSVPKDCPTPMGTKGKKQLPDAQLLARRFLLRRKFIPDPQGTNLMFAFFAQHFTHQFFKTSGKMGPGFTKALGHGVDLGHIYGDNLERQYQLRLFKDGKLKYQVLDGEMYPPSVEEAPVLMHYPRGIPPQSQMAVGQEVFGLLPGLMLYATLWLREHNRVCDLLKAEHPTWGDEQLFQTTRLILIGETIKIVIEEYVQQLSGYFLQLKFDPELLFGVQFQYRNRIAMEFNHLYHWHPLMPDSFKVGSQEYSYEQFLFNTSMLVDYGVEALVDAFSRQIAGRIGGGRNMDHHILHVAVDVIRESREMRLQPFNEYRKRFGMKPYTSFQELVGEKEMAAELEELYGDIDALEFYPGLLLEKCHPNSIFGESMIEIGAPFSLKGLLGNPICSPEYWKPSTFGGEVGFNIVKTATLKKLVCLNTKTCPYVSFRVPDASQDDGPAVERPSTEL
Experimental: (§1) The specificity of a given extended duration Cox-2 inhibitor is measured by determining the IC50 or EC50 for each compound described above.

hCOX-2 = target: T1, hCOX-2 (Homo sapiens, UniProt P35354); test: hCOX-2 enzyme inhibition (IC50) and selectivity; assay type: biochemical; details: for hCOX selectivity hCOX-1/hCOX-2: Cox-1 IC50/Cox-2 IC50; for IC50: repeated experimental results listed separately
T1 sequence (P35354 18-604): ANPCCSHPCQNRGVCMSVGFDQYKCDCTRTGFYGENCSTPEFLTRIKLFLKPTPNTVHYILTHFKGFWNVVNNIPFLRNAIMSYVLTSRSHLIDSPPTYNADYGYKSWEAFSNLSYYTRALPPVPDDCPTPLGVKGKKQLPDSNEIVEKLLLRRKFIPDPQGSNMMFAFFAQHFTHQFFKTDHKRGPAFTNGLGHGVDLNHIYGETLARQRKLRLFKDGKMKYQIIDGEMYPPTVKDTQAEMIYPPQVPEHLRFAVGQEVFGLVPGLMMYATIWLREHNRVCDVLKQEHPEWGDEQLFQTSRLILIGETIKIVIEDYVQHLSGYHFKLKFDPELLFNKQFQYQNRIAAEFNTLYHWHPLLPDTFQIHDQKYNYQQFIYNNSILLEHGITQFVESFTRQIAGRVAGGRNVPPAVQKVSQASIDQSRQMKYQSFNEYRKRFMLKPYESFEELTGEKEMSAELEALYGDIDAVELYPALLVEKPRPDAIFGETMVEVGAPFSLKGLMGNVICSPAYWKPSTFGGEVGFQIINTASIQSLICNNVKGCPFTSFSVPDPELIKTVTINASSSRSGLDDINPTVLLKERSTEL
Experimental: as §1

[4] = system: adjuvant-induced arthritis in male Lewis rats; test: Adjuvant-induced arthritis in rat paws (paw volume); assay type: in vivo; details: single oral dose, 3 mg/kg (FIG. 2) / 3 mg/mL, followed 28 days
Experimental: This experiment was performed following a modified method of Connor, J. et al. (European J. Pharmacology, 1995, 273:15-24). Briefly, arthritis was induced in pathogen-free, male Lewis rats by an intadermal injection of 20 mg/ml Mycobacterium butyricum suspended in squalene in three sites at the base of the tail. The injection of mycobacteria produces a systemic autoimmune response and subsequent chronic inflammation of the joints with many similarities to rheumatoid arthritis. The induced arthritis was allowed to develop for 14 days at which time animals were given a single oral dose of a Cox-2 selective inhibitor at […]. Effectiveness was assessed by the decrease in rat paw edema (paw volume) for 28 days following the Cox-2 inhibitor dose. Paw volume was determined using a water displacement plethysmometer. To gage the drug response, the paw volumes of rats treated with Cox-2 selective inhibitors were compared to normal healthy rats without induced arthritis and without drug (normal-control group) and rats with induced arthritis but without drug (adjuvant-control group).
All of the compounds tested in this model were effective for a minimum of 5 days.

[5] = cited from earlier work
[6] = plasma, po, 2 mg/kg, plasma, oral 2 mg/kg, non-cassette dosed, read-out: Rat t1/2 (converted)
[7] = po, oral 2 mg/kg each compound, cassette, read-out: Canine Cassette-dosed t1/2 (converted)

| half-life [1, 6] [h] | half-life [2, 7] [h] | half-life [3] [h] | SMILES | IC50 (hCOX-1) | IC50 (hCOX-2) | other results |
| --- | --- | --- | --- | --- | --- | --- |
| 97 | ~771 | 466 | NS(=O)(=O)c1ccc(-n2nc(C(F)(F)F)cc2-c2ccc(Cl)cc2Cl)cc1 [4-[5-(2,4-[dichlorophenyl)-3-(trifluoromethyl)-1H-pyrazol-1-yl]benzenesulfonamide] |  |  |  |
| 157 | ~830 | 762 | NS(=O)(=O)c1ccc(-n2nc(C(F)(F)F)cc2-c2ccc(Cl)c(Cl)c2)cc1 [4-[5-(3,4-dichlorophenyl)-3-(trifluoromethyl)-1H-pyrazol-1-yl]benzenesulfonamide] |  |  | effectiveness in minimizing rat paw volume over longer time periods [4]: effective extended duration compounds |
| 59 | ~881 | 500 | NS(=O)(=O)c1ccc(-n2nc(C(F)(F)F)cc2-c2ccc(F)c(F)c2)cc1 [4-[5-(3,4-difluorophenyl)-3-(trifluoromethyl)-1H-pyrazol-1-yl]benzenesulfonamide] |  |  |  |
|  | ~17 |  | COc1c(Cl)cc(-c2cc(C(F)(F)F)nn2-c2ccc(S(N)(=O)=O)cc2)cc1Cl [4-[5-(3,5-dichloro-4-methoxyphenyl)-3-(trifluoromethyl)-1H-pyrazol-1-yl]benzenesulfonamide] |  | 0.0547 µM and 0.039 µM |  |
|  | ~22 |  | COc1ccc(-c2cc(C(F)(F)F)nn2-c2ccc(S(N)(=O)=O)cc2)cc1Cl [4-[5-(3-chloro-4-methoxyphenyl)-3-(trifluoromethyl)-1H-pyrazol-1-yl]benzenesulfonamide] |  |  |  |
|  | ~44 | 12 | Cc1cc(-c2cc(C(F)(F)F)nn2-c2ccc(S(N)(=O)=O)cc2)ccc1Cl [4-[5-(4-chloro-3-methylphenyl)-3-(trifluoromethyl)-1H-pyrazol-1-yl]benzenesulfonamide] | 4.92 µM | < 0.137 µM |  |
| 193 | ~1190 |  | NS(=O)(=O)c1ccc(-n2nc(C(F)(F)F)cc2-c2ccc(Cl)cc2)cc1 [4-[5-(4-chlorophenyl)-3-(trifluoromethyl)-1H-pyrazol-1-yl]benzenesulfonamide] |  |  | half-life ([1]; plasma, oral, 2 mg/kg, single dosage administration, read-out: Rat half-life (converted)): 192 h; Rat half-life ([1]; single dosage administration): ≤ 190 h; half-life ([2]; oral, cassette-dosed, single dosage, read-out: canine half-life (converted)): ~1180 h; canine half-life ([2]; cassette-dosed, single dosage): ≤ 1180 h; increase in plasma half-life in canines ([2]; fast metabolizing subtype): 207 fold; increase in plasma half-life in canines ([2]; slow metabolizing subtype): 691 fold; duration of therapeutically effective blood concentration ([2]; without increased or additional dosing): at least 24 hours |
| 32 | 572 | 289 | NS(=O)(=O)c1ccc(-n2nc(C(F)(F)F)cc2-c2ccc(F)cc2)cc1 [4-[5-(4-fluorophenyl)-3-(trifluoromethyl)-1H-pyrazol-1-yl]benzenesulfonamide] |  |  |  |
|  | ~18 |  | COc1c(C)cc(-c2cc(C(F)(F)F)nn2-c2ccc(S(N)(=O)=O)cc2)cc1C [4-[5-(4-methoxy-3,5-dimethylphenyl)-3-(trifluoromethyl)-1H-pyrazol-1-yl]benzenesulfonamide] | > 100 µM | 0.08 µM |  |
|  | ~36 |  | COc1ccc(-c2cc(C(F)(F)F)nn2-c2ccc(S(N)(=O)=O)cc2)cc1C [4-[5-(4-methoxy-3-methylphenyl)-3-(trifluoromethyl)-1H-pyrazol-1-yl]benzenesulfonamide] |  |  |  |
|  | ~21 |  | COc1ccc(-c2cc(C(F)(F)F)nn2-c2ccc(S(N)(=O)=O)cc2)cc1 [4-[5-(4-methoxyphenyl)-3-(trifluoromethyl)-1H-pyrazol-1-yl]benzenesulfonamide] |  |  |  |
|  |  |  | Cc1ccc(-c2cc(C(F)(F)F)nn2-c2ccc(S(N)(=O)=O)cc2)cc1 [4-[5-(4-methylphenyl)-3-(trifluoromethyl)-1H-pyrazol-1-yl]benzenesulfonamide] |  |  | half-life ([1]; female, in vivo, female rats, non-cassette dosed, comparison data, read-out: Rat t1/2 in Female (converted)): 14 h; half-life ([1]; male, in vivo, male rats, non-cassette dosed, comparison data, read-out: Rat t1/2 in Male (converted)): 3.73 h; Canine t1/2 ([5]; comparison data for the 4-methylphenyl compound): 1.72 to 5.18 h; effective half-life in canines ([5]; fast metabolizing subtype (so in the source)): 5.72 h; effective half-life in canines ([5]; slow metabolizing subtype (so in the source)): 1.72 h |

| SMILES | half-life [1, 6] [h] | half-life [2, 7] [h] | half-life [3] [h] | IC50 (hCOX-1) | IC50 (hCOX-2) | other results |
| --- | --- | --- | --- | --- | --- | --- |
| NS(=O)(=O)c1ccc(-n2nc(C(F)(F)F)cc2-c2ccc(F)cc2F)cc1 [4-[5-(2,4-[difluorophenyl)-3-(trifluoromethyl)-1H-pyrazol-1-yl]benzenesulfonamide] | 25 | ~716 | 233 | 38.4 µM and 14 µM and 22.4 µM | 0.149 µM and 0.036 µM and < 0.137 µM | hCOX selectivity hCOX-1/hCOX-2 (hCOX-2): 393 |
| Cc1ccc(-c2cc(C(F)(F)F)nn2-c2ccc(S(N)(=O)=O)cc2)cc1Cl [4-[5-(3-chloro-4-methylphenyl)-3-(trifluoromethyl)-1H-pyrazol-1-yl]benzenesulfonamide] | 5.1 | 17 |  | 57 µM and 12.5 µM and 14.3 µM | 0.0249 µM and < 0.137 µM and 0.007 µM | hCOX selectivity hCOX-1/hCOX-2 (hCOX-2): 2289 |
| COc1cc(-c2cc(C(F)(F)F)nn2-c2ccc(S(N)(=O)=O)cc2)ccc1Br [4-[5-(4-bromo-3-methoxyphenyl)-3-(trifluoromethyl)-1H-pyrazol-1-yl]benzenesulfonamide] |  |  | 71 | 30.3 µM and 35.3 µM | 0.0453 µM and < 0.137 µM | hCOX selectivity hCOX-1/hCOX-2 (hCOX-2): 669 |
